Data published in the NIST ThermoML archive (doi:10.1016/j.jct.2009.01.010).
Values joined by “and” are separate entries in the source; they are usually repeats but may differ in a detail not shown here. Equal entries are not always repeated.

Experiments:
[1] = xn = mol fraction of the nth substance listed; conditions: 298.15 K, 101 kPa, Liquid; for speed of sound: Linear variable-path acoustic interferometer; for mass density: Pycnometric method
[2] = refractive index (Na D-line) (dimensionless); xn = mol fraction of the nth substance listed; conditions: 298.15 K, 101 kPa, Liquid, Abbe refractometer
[3] = 298.15 K, 101 kPa, Liquid; for mass density: Pycnometric method
[4] = refractive index (Na D-line) (dimensionless); conditions: 298.15 K; 101.33 kPa; Liquid; Abbe refractometer

COCCO [2-methoxyethan-1-ol] + O
Conditions	mass density, [1] [kg/m3]	refractive index, [2]	speed of sound, [1] [m/s]
x1 = 0.0202	999.08	1.34	1546.5
x1 = 0.04	1001.08	1.346	1581
x1 = 0.0539	1002.4	1.35	1600.9
x1 = 0.0822	1004.71	1.357	1636.5
x1 = 0.101	1005.84	1.361	1643.7
x1 = 0.1509	1007.02	1.37	1654.7
x1 = 0.2036	1005.67	1.378	1641.7
x1 = 0.3025	999.82	1.386	1587.3
x1 = 0.4033	992.74	1.391	1532.3
x1 = 0.5009	985.91	1.394	1488.5
x1 = 0.5514	982.57	1.395	1470.9
x1 = 0.6976	974	1.396	1418.8
x1 = 0.7855	969.57	1.398	1392
x1 = 0.889	964.87	1.398	1369.3
x1 = 1	960.23	1.4002	1341.7

CCOCCOCCO [3,6-dioxa-1-octanol]
Conditions	speed of sound [m/s]
[3], Linear variable-path acoustic interferometer	1378

Conditions	mass density [kg/m3]	refractive index
[3]	984.6	–
[4]	–	1.425

CCOCCOCCO [3,6-dioxa-1-octanol] + O
Conditions	mass density, [1] [kg/m3]	refractive index, [2]	speed of sound, [1] [m/s]
x1 = 0.013	1001.37	1.3424	1562
x1 = 0.025	1005.93	1.3515	1602
x1 = 0.05	1013.24	1.3654	1656
x1 = 0.06	1015.27	1.3695	1670.5
x1 = 0.076	1017.84	1.376	1670
x1 = 0.101	1020.05	1.3837	1658
x1 = 0.152	1019.56	1.396	1621
x1 = 0.202	1017.51	1.4028	1601.9
x1 = 0.302	1011.81	1.4108	1549.5
x1 = 0.402	1005.59	1.414	1500
x1 = 0.519	999.21	1.4198	1460
x1 = 0.59	996.2	1.4203	1442
x1 = 0.775	990.78	1.4228	1412
x1 = 0.852	988.76	1.4235	1398
x1 = 1	984.6	1.425	1378

O [water]
Conditions	mass density [kg/m3]	refractive index
[3]	999.704	–
[4]	–	1.333 and 1.3325

O [water] + CCOCCO
x2 = 0
Conditions	mass density [kg/m3]	refractive index
[1]	999.704	–
[2]	–	1.3325

O [water] + CCOCCOCCO
x2 = 0
Conditions	mass density [kg/m3]	refractive index
[1]	999.704	–
[2]	–	1.3325

O [water] + COCCO
x2 = 0
Conditions	mass density [kg/m3]	refractive index
[1]	999.704	–
[2]	–	1.333

O [water] + COCCOCCO
x2 = 0
Conditions	mass density [kg/m3]	refractive index
[1]	999.704	–
[2]	–	1.333
